Source: patent EP0452101B1, “Spiro bridged and unbridged heterocyclic compounds” (ISRAEL INSTITUTE FOR BIOLOGICAL RESEARCH, priority 1990, dated 1991)
Where two headings read alike, the source gives them in different places.

Assays:
M1 muscarinic receptor [1] = biological target: T1, M1 muscarinic receptor (Rattus norvegicus, UniProt P08482); assay: Displacement of 3H-PZ from cortical binding sites, Tris/Mn buffer, with and without GppNHp; parameters: from tissue; host or cells: rat cerebral cortex homogenates; conditions: for KL-G / KH-G: ratio of low and high affinities without GppNHp
T1 sequence (P08482 1-460): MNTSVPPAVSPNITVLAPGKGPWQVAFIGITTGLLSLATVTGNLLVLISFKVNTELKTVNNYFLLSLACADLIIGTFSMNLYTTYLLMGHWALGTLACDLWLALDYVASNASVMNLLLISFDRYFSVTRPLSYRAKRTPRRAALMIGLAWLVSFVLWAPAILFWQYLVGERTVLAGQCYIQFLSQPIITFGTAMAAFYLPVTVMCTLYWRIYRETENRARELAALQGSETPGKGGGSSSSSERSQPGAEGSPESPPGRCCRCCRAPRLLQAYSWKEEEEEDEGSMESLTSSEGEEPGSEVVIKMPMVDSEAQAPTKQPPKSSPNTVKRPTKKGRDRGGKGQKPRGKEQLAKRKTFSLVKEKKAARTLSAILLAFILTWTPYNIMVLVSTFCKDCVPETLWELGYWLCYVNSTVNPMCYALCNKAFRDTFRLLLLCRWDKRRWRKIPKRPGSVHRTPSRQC
From the text: The binding of agonists to M1 muscarinic receptors and the effect of guanylyl imidophosphate (GppNHp). Agonists are known to be coupled with guanine nucleotide binding proteins (G proteins).
Non-hydrolyzable guanine nucleotides such as GppNHp dissociate the G protein from the receptor and decrease the affinity of the receptor for agonists but not for antagonists. […] Molec.
Under these conditions agonists of high efficacy ("full agonists") bind directly to the M1 receptor subtype with two affinities. […] The ratio of low and high affinities (KL/KH) of the M1 receptor may predict the relative efficacies of agonists to activate putative M1 receptor-mediated second messenger systems.
KH, KL, %H and %L are the apparent inhibition constants of the tested ligands for the high and low affinity sites, respectively. G is GppNHp (guanylyl imidodiphosphate), and was used in 0.1 mM concentration. Displacement of ^3H-PZ from cortical binding sites was performed in Tris/Mn buffer (pH 7.4) for one hour at 25°C; the buffer included 1 mM EDTA and 2mM Mn^++ ions. […] The binding data were analyzed using a GraphPAD program and were fitted to one or two components. Values are means from 1-3 experiments carried out in triplicates.

M2 muscarinic receptors = biological target: T2, M2 muscarinic receptors (Rattus norvegicus, UniProt P10980); assay: Displacement of 3H-QNB from rat cerebellum, 50 mM phosphate buffer; assay type: binding
T2 construct: displacing from rat brain homogenates, cerebellum or frontal cortex; from tissue; host or cells: rat cerebellum homogenates
T2 sequence (P10980 1-466): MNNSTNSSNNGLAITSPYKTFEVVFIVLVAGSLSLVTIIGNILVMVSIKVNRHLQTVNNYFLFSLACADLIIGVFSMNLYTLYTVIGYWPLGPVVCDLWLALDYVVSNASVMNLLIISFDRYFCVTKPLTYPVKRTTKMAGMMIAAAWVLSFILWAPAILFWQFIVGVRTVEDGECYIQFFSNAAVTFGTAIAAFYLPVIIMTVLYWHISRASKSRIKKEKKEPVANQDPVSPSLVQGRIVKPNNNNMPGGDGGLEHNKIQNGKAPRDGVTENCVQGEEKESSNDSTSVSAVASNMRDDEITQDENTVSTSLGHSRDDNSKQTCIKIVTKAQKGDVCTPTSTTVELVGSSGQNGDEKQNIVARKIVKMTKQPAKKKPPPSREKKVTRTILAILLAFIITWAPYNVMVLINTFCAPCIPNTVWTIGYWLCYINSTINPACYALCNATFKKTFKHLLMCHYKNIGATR

m1 receptors = biological target: T3, m1 receptors (Rattus norvegicus, UniProt P08482); assay: PI hydrolysis in CHO cells transfected with m1 receptors; assay type: cell-based; conditions: for EC50: CHO m1, PI hydrolysis; for PI (phosphoinositides hydrolysis): tested at 1mM
T3 construct: expressed in transfected cells; host or cells: CHO cells
T3 sequence (P08482 1-460): T1 sequence (P08482 1-460)

M1 muscarinic receptor [2] = biological target: T1, M1 muscarinic receptor; assay: Displacement of 3H-PZ from rat cerebral cortex, 10 mM phosphate buffer; assay type: binding; parameters: from tissue; host or cells: rat cerebral cortex homogenates
M1 muscarinic receptor [3] = biological target: T1, M1 muscarinic receptor; assay: Potentiation of AC activity (basal and forskolin-stimulated cAMP) via m1 receptors; assay type: cell-based; parameters: expressed in transfected cells; host or cells: CHO cells
From the text: Stimulation of m1 and m3 receptors elicit dose-dependent increases in the hydrolysis of phosphoinositides (PI). Agonist activation of the m1 receptor also elicits increases in basal and forskolin-stimulated cAMP, whereas the m3 receptor has no effect on intracellular cAMP levels (Buck and Fraser, Biochem. Biophys. Res. Comm. 173: 662-672, 1990). Stimulation of the m2 and m4 receptors by muscarinic agonists leads to preferential inhibition of adenylate cyclase (AC) activity (Mei et al, Life Sciences, 45: 1831-1851, 1989).

[4] = +G (0.1 mM GppNHp), read-out: KH
[5] = +G (0.1 mM GppNHp), read-out: KL
[6] = -G (without GppNHp), read-out: KH
[7] = cortex, Table 4, read-out: 3H-PZ-Binding KH (a)

| Compound | Ki (M1 muscarinic receptor [1]; [4]) [µM] | Ki (M1 muscarinic receptor [1]; [5]) [µM] | Ki (M1 muscarinic receptor [1]; [6]) [µM] | Ki (M1 muscarinic receptor [1]; -G, read-out: KL) [µM] | Ki (M1 muscarinic receptor [2]; [7]) [µM] | increase in basal cAMP (M1 muscarinic receptor [3]) [%] | increase in forskolin-stimulated cAMP (M1 muscarinic receptor [3]) [%] | %L (M1 muscarinic receptor [1]; +G (0.1 mM GppNHp)) [%] | % H (M1 muscarinic receptor [1]; -G) [%] | %L (M1 muscarinic receptor [1]; -G) [%] | KL-G / KH-G (M1 muscarinic receptor [1]) | EC50 (m1 receptors) [µM] | PI (phosphoinositides hydrolysis) (m1 receptors; CHO m1) | other results |
| --- | --- | --- | --- | --- | --- | --- | --- | --- | --- | --- | --- | --- | --- | --- |
| CC1=NCC2(CN3CCC2CC3)O1 (racemic) [AF125, 2-Methyl-spiro(1,3 oxazoline-5,3')quinuclidine] | 9 | 12 | 9 | 12 | 4 |  |  |  |  |  |  |  |  | Ki (M2 muscarinic receptors; read-out: 3H-QNB-Binding KH2 (c), cerebellum, Table 5): 3.8 µM; Ki (M2 muscarinic receptors; read-out: 3H-QNB-Binding KH (c), cerebellum, Table 4): 3.8 µM; PI, % of carbachol effect (m1 receptors; CHO m1): 14% |
| CC1=NC2(CCN(C)CC2)CO1 [AF151, 1-methylpiperidine-4-spiro-4'-(2'-methyl-1',3'-oxazoline)] | 4.6 | 59 | 3.7 | 4.8 |  | 33 | 76 | 83 | 39 | 61 | 13 | 54 | +++ | % H (M1 muscarinic receptor [1]; +G (0.1 mM GppNHp)): 17% |
| CC1=NCC2(CCN(C)CC2)O1 [AF150, 2-Methyl-spiro(1,3-oxazoline-5,4')-1'-methylpiperidine] |  | 21 | 0.11 | 11 | 0.02 | 33 | 76 | 100 | 21 | 83 | 100 | 13 | +++ | RATIOS d:c (M2 muscarinic receptors; KL2 : KH2 cerebellum (3H-QNB)): 17; % H (M2 muscarinic receptors; cerebellum, Table 4): 49%; %L (M2 muscarinic receptors; cerebellum, Table 4): 51%; Ki (M2 muscarinic receptors; cerebellum, Table 4, read-out: 3H-QNB-Binding KH (c)): 4.5 µM; Ki (M2 muscarinic receptors; cerebellum, Table 4, read-out: 3H-QNB-Binding KL (d)): 79 µM; % H2 (M2 muscarinic receptors; cerebellum, Table 5): 51%; % L2 (M2 muscarinic receptors; cerebellum, Table 5): 49%; Ki (M2 muscarinic receptors; cerebellum, Table 5, read-out: 3H-QNB-Binding KH2 (c)): 4.9 µM; Ki (M2 muscarinic receptors; cerebellum, Table 5, read-out: 3H-QNB-Binding KL2 (d)): 83 µM; RATIOS c:a (M1 muscarinic receptor [2]; KH cerebellum (3H-QNB) : KH cortex (3H-PZ)): 225; RATIOS b:a (M1 muscarinic receptor [2]; KL : KH cortex (3H-PZ)): 900; RATIOS d:b (M1 muscarinic receptor [2]; KL cerebellum (3H-QNB) : KL cortex (3H-PZ)): 4.4; % H (M1 muscarinic receptor [2]; cortex, Table 4): 24%; %L (M1 muscarinic receptor [2]; cortex, Table 4): 76%; Ki (M1 muscarinic receptor [2]; cortex, Table 4, read-out: 3H-PZ-Binding KL (b)): 18 µM |
